Assay [1] concerns specimen of rat aorta. The assay can be described thus: Vasorelaxation activity in a specimen of rat aorta: contraction caused by TEA and BaCl2. Conditions: TEA (30-45 mM) and BaCl2 (0.3 mM) contraction, read-out: constriction inhibitory ratio. As for the experimental part: Vasorelaxation activity in a specimen of rat aorta Effects on contraction caused by tetraethylammonium chloride (TEA) and barium chloride (BaCl2)
(§1) Male Wister rats (10 to 13 week old were employed for the experiment. After dehematization, the aorta was excised and a ring specimen (5 mm length) was prepared. The specimen was suspended in a bath filled with oxygenated (95% O2 -5%CO2) Krebs solution (36° C.). The ring specimen was fixed at one end and the other end was connected to a transducer (Nippon Koden) for recording tension to determine the tension. After a stabilization period of one hour, TEA (30-45 mM) and BaCl2 (0.3 mM) were added to the bath to cause vasoconstriction. After the constriction had reached a steady state (after about 15 minutes), a test compound was added to the bath and its relaxation activity was measured.

Assay [2] concerns anesthetized dogs. Kind of assay: Action of increasing coronary blood flow in anesthetized dogs (administration into coronary artery). Format: in vivo, dog. The conditions noted are these: injected into coronary artery, anesthetized Beagle dogs. As for the experimental part:
Action of increasing coronary blood flow in anesthetized dogs (Administration into coronary artery) Method: Beagle dogs (10 to 12 kg body weight) were anesthetized with pentobarbital and subjected to thoractomy under artificial respiration. A by-pass fitted with an electromagnetic flowmeter (Nippon Koden) was prepared between the left coronary artery and left carotid artery,and the volume of coronary blood flow was measured. […]
Maximal change rate against the value measured before the administration (% of basal flow) and the duration period [shown in terms of the time (T1/2) in which the activity is reduced to half] are shown in Table 67. As a result, it is apparent that the compounds of this invention show action of increasing coronary blood flow.

Assay [3] deals with specimen of rat aorta. Kind of assay: Vasorelaxation activity in a specimen of rat aorta: contraction caused by KCl. The conditions noted are these: read-out: constriction inhibitory ratio. The procedure:
as §1
Vasorelaxation activity in a specimen of rat aorta Effects on contraction caused by potassium chloride (KCl)
The same experiment was conducted as in Experiment 1, excepting the use of KCl ([…]) instead of TEA and BaCl2

Assay [4] concerns Spontaneously hypertensive rats. The assay can be described thus: Hypotensive activity in rats (Tail Cuff Method), oral. It is filed as in vivo. The conditions noted are these: Rattus norvegicus, 1 mg/kg, SHR. As for the experimental part:
Hypotensive activity in rats (Tail Cuff Method)
Spontaneously hypertensive rats (SHR, male, 20 to 23 week old) were warmed up to 36° C. The blood pressure at the tail aorta was measured by the tail cuff method. The blood pressure was measured three times, i.e. before oral administration of the test compound, two hours after the administration and five hours after the administration. The test compound was orally administered in the state of a suspension in gum arabic.
Maximal, hypotensive effect against the blood pressure before the administration is shown as % pre. in Table 66. As a result, it is apparent that the compounds of this invention show hypotensive activity.

[5] abbreviates: after 2 hours, read-out: Maximal hypotensive effect against blood pressure before administration (% pre.), after 2 hours.
The mark [6] stands for this setting: after 5 hours, read-out: Maximal hypotensive effect against blood pressure before administration (% pre.), after 5 hours.

The structures appear in SMILES notation. Read-outs that look alike come from different tables or passages of the source.

The source of these data is patent US5716971A, “Pyridine derivatives, their production and use” (Takeda Chemical Industries, Ltd., priority 1993, dated 1998).

In the case of `CC(C)(C)O/N=C(/c1cc(C#N)c(Cl)cc1O)c1ncccc1O` [Compound 130, (Z)-2-(4-chloro-5-cyano-2-hydroxybenzoyl)-3-hydroxy pyridine O-t-butyloxime], the inhibition at 1 µM in assay [1] stood at 100%. Also, the “duration (T1/2): time in which the activity is reduced to half” value in assay [2] (30 ug/day) turned out to be 4.4 min.

For the compound `CC(C)(C)O/N=C(/c1cc(Br)c(C#N)cc1O)c1c(O)ccc[n+]1[O-]` [Compound 129, (Z)-2-(5-bromo-4-cyano-2-hydroxybenzoyl)-3-hydroxy pyridine N-oxide O-t-butyloxime], the inhibition at 1 µM stood at 100% in assay [1] and 18% in assay [3]. For the same compound, the “duration (T1/2): time in which the activity is reduced to half” value in assay [2] (10 μg/dog administration) is on record as 42.9 min.

Regarding `CC(C)(C)O/N=C(/c1cc(F)c(C#N)cc1O)c1c(O)ccc[n+]1[O-]` [Compound 177, (Z)-2-(4-cyano-5-fluoro-2-hydroxybenzoyl)-3-hydroxy pyridine N-oxide O-t-butyloxime], the inhibition at 1 µM in assay [1] was determined as 50%; in assay [3], 0%. The inhibition at 3 µM in assay [1] worked out at 100%; in assay [3] it was 0%. The “duration (T1/2): time in which the activity is reduced to half” value in assay [2] (10 μg/dog administration) amounted to 9.8 min.

Take `CC(C)(C)O/N=C(/c1cc(F)c(Cl)cc1O)c1cccc[n+]1[O-]` [Compound 103, (Z)-2-(4-chloro-5-fluoro-2-hydroxybenzoyl)pyridine N-oxide O-t-butyloxime]: in assay [1], the inhibition at 3 µM was 29% and the inhibition at 10 µM is 47%. Moreover, the “duration (T1/2): time in which the activity is reduced to half” value in assay [2] (30 ug/day) is given as 3.0 min.

`CC(C)(C)O/N=C(/c1cc(C#N)c(Cl)cc1O)c1c(O)ccc[n+]1[O-]` [Compound 132, (Z)-2-(4-chloro-5-cyano-2-hydroxybenzoyl)-3-hydroxy pyridine N-oxide O-t-butyloxime]: the inhibition at 1 µM in assay [1] came out at 100%. Further, the “duration (T1/2): time in which the activity is reduced to half” value in assay [2] (30 ug/day) is 71.8 min.

Turning to `CC(C)(C)O/N=C(/c1cc(Cl)c(Cl)cc1O)c1cccc[n+]1[O-]` [Compound 95, (Z)-2-(4,5-dichloro-2-hydroxybenzoyl)pyridine N-oxide O-t-butyloxime], in assay [1], the inhibition at 1 µM came to 59% and the inhibition at 3 µM was determined as 71%. Also, in assay [3], the inhibition at 1 µM amounted to 3% and the inhibition at 3 µM was determined as 12%. The “duration (T1/2): time in which the activity is reduced to half” value in assay [2] (30 ug/day) is on record as 4.0 min.

In the case of `Cc1ccc(O)c(/C(=N/OC(C)(C)C)c2ncccc2O)c1` [Compound 23, (Z)-2-(2-hydroxy-5-methylbenzoyl)-3-hydroxypyridine O-t-butyloxime], the “duration (T1/2): time in which the activity is reduced to half” value in assay [2] (30 ug/day) is 1.2 min.

In the case of `CC(C)(C)O/N=C(/c1cc(Br)ccc1O)c1ncccc1O` [Compound 6, (Z)-2-(5-bromo-2-hydroxybenzoyl)-3-hydroxypyridine O-t-butyloxime], in assay [1], the inhibition at 1 µM stood at 62% and the inhibition at 3 µM is 82%. Moreover, in assay [3], the inhibition at 1 µM was 5% and the inhibition at 3 µM came to 17%. Moreover, in assay [2] (30 ug/day), the “duration (T1/2): time in which the activity is reduced to half” value was 1.5 min.

As for `CC(C)(C)O/N=C(/c1cc(F)c(C#N)cc1O)c1ncccc1O` [Compound 176, (Z)-2-(4-cyano-5-fluoro-2-hydroxybenzoyl)-3-hydroxyoyridine O-t-butyloxime], in assay [1], the inhibition at 1 µM amounted to 100%. In assay [2] (10 μg/dog administration), the “duration (T1/2): time in which the activity is reduced to half” value is reported as 1.8 min.

`COc1cc(O)c(/C(=N/OC(C)(C)C)c2ncccc2O)cc1Br` [Compound 43]: in assay [1], the inhibition at 3 µM was determined as 63% and the inhibition at 10 µM was 75%. Moreover, in assay [3], the inhibition at 3 µM turned out to be 0% and the inhibition at 10 µM was 5%. In addition, in assay [2] (30 ug/day), the “duration (T1/2): time in which the activity is reduced to half” value was 1.7 min.

As to `CC(C)(C)O/N=C(/c1cc(Br)c(F)cc1O)c1c(OC(=O)C(C)(C)C)ccc[n+]1[O-]` [Compound 171, (Z)-2-(5-bromo-4-fluoro-2-hydroxybenzoyl)-3-pivaloyloxypyridine N-oxide O-t-butyloxime], the “duration (T1/2): time in which the activity is reduced to half” value in assay [2] (10 μg/dog administration) is given as 23.4 min.

`CC(C)(C)O/N=C(/c1cc(Cl)c(C#N)cc1O)c1c(O)ccc[n+]1[O-]` [Compound 175, (Z)-2-(5-chloro-4-cyano-2-hydroxybenzoyl)-3-hydroxy pyridine N-oxide O-t-butyloxime]: the inhibition at 1 µM in assay [1] was 100%; in assay [3], 4%. In assay [2] (10 μg/dog administration), the “duration (T1/2): time in which the activity is reduced to half” value is listed as 34.3 min.

For the compound `CC(C)(C)O/N=C(/c1cc(F)c(F)cc1O)c1cccc[n+]1[O-]` [Compound 100, (Z)-2-(4,5-difluoro-2-hydroxybenzoyl)pyridine N-oxide O-t-butyloxime], the inhibition at 1 µM in assay [1] turned out to be 52%; in assay [3] it was 4%. In addition, the results for the inhibition at 3 µM in assay [1] and in assay [3] were 100% and 11%, respectively. For the same compound, the “duration (T1/2): time in which the activity is reduced to half” value in assay [2] (30 ug/day) was determined as 3.3 min.

For the compound `CC(C)(C)O/N=C(/c1cc(Br)c(C#N)cc1O)c1ncccc1O` [Compound 128, (Z)-2-(5-bromo-4-cyano-2-hydroxybenzoyl)-3-hydroxy pyridine O-t-butyloxime], the inhibition at 1 µM in assay [1] is 100%. Besides, the “duration (T1/2): time in which the activity is reduced to half” value in assay [2] (30 ug/day) was determined as 6.2 min.

For `CC(C)(C)O/N=C(/c1cc(Cl)c(C#N)cc1O)c1ncccc1O` [Compound 174, (Z)-2-(5-chloro-4-cyano-2-hydroxybenzoyl)-3-hydroxy pyridine O-t-butyloxime], the inhibition at 1 µM in assay [1] stood at 100%. Moreover, the “duration (T1/2): time in which the activity is reduced to half” value in assay [2] (10 μg/dog administration) turned out to be 4.4 min.

In the case of `CC(C)(C)ON=C(c1cc(Cl)ccc1O)c1ncccc1O` [Compound 14], in assay [1], the inhibition at 1 µM worked out at 71% and the inhibition at 3 µM is 90%. In assay [3], the inhibition at 1 µM came out at 2% and the inhibition at 3 µM amounted to 11%. The “duration (T1/2): time in which the activity is reduced to half” value in assay [2] (30 ug/day) was found to be 1.6 min.

Take `Cc1cc(O)c(/C(=N/OC(C)(C)C)c2ncccc2O)cc1Br` [Compound 61, (Z)-2-(5-bromo-2-hydroxy-4-methylbenzoyl)-3-hydroxypyridine O-t-butyloxime]: in assay [1], the inhibition at 1 µM was 54% and the inhibition at 3 µM amounted to 100%. In assay [3], the inhibition at 1 µM came to 4% and the inhibition at 3 µM is 7%. For the same compound, the “duration (T1/2): time in which the activity is reduced to half” value in assay [2] (30 ug/day) is 2.0 min.

With `CC(C)(C)O/N=C(/c1cc([N+](=O)[O-])ccc1O)c1ncccc1O` [Compound 27, (Z)-2-(2-hydroxy-5-nitrobenzoyl)-3-hydroxypyridine O-t-butyloxime], in assay [2] (30 ug/day), the “duration (T1/2): time in which the activity is reduced to half” value turned out to be 2.1 min.

Regarding `CC(C)(C)O/N=C(/c1cc(Cl)ccc1O)c1c(O)ccc[n+]1[O-]` [Compound 123], the values for the inhibition at 3 µM in assay [1] and in assay [3] were 52% and 0%, respectively. The inhibition at 10 µM was 91% in assay [1] and 0% in assay [3]. Further, the inhibition in vivo at 1 mg/kg in assay [4] (setting [5]) stood at 37%; in assay [4] (setting [6]) it was 12%.

With `CC(C)(C)O/N=C(/c1cc(Br)c(Cl)cc1O)c1c(O)ccc[n+]1[O-]` [Compound 119, (Z)-2-(5-bromo-4-chloro-2-hydroxybenzoyl)-3-hydroxypyridine N-oxide O-t-butyloxime], the values for the inhibition at 1 µM in assay [1] and in assay [3] were 69% and 5%, respectively. For the same compound, the inhibition at 3 µM in assay [1] came to 71%; in assay [3], 6%. In addition, the results for the inhibition in vivo at 1 mg/kg in assay [4] (setting [5]) and in assay [4] (setting [6]) were 48% and 29%, respectively.
